Reference: ChEMBL document CHEMBL1155683, “Dolastatin 3 and two novel cyclic peptides from a palauan collection of Lyngbya majuscula” (J Nat Prod, 2000)
Active and inactive are the calls of the source. No cut-off for these calls is given here.

What was measured:
[1] = target: T1, Human immunodeficiency virus type 1 integrase (Human immunodeficiency virus 1, UniProt Q7ZJM1); test: Inhibition of HIV1 integrase long terminal repeat cleavage activity
[2] = target: T1, Human immunodeficiency virus type 1 integrase; test: Inhibition of HIV1 integrase strand transfer activity
[3] = target: Human immunodeficiency virus type 1 integrase (Human immunodeficiency virus 1) (UniProt Q7ZJM1); test: Inhibition of HIV1 integrase strand transfer activity at […]
Sequence of Human immunodeficiency virus type 1 integrase (Human immunodeficiency virus 1) (Q7ZJM1 as listed by the source): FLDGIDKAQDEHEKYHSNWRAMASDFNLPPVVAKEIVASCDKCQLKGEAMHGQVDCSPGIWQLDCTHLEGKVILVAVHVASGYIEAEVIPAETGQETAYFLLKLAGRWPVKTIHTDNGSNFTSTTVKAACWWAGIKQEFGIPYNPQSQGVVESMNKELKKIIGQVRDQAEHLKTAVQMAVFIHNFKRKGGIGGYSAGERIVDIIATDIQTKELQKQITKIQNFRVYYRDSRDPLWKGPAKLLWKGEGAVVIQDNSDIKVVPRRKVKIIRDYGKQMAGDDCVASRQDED

[4] = target: Human immunodeficiency virus type 1 integrase (Human immunodeficiency virus 1) (UniProt Q7ZJM1); test: Inhibition of HIV1 integrase long terminal repeat cleavage activity at […]

T1 sequence (Q7ZJM1 whole entry): as the sequence (Q7ZJM1 as listed by the source) above

Row | Activity [3] | Activity [4] | SMILES | IC50 [1] [mM] | IC50 [2] [mM]
1 |  |  | CC(C)C[C@@H]1NC(=O)[C@@H]2CCCN2C(=O)[C@H](C(C)C)NC(=O)c2csc(n2)CNC(=O)c2csc(n2)[C@H](CCC(N)=O)NC1=O [DOLASTATIN 3] | 5 | 4.1
2 | inactive | inactive | CCC(C)[C@@H]1NC(=O)c2csc(n2)CNC(=O)c2csc(n2)[C@H](CCC(N)=O)NC(=O)[C@H](CC(C)C)NC(=O)[C@@H]2CCCN2C1=O (some centres undefined) |  | 
